According to patent US6316423A, “Method of treating ischemic, hypoxic and anoxic brain damage” (priority 1999, dated 2001):
Entries after “also recorded” stand apart in the source; their conditions may differ.

Experiments:
Assay type in all cases: in vivo, gerbil
[1] = tested on: gerbils exposed to 10 minutes of brain ischemia; assay: Mortality after 10 min ischemia, preischemic ADAC; conditions: 0.1 mg/kg preischemic, entire monitoring period (14 days); control 60%
Protocol: Seven control animals out of 20 (35%) died during the initial 12 hour period following 10 minutes of ischemia. Three additional control gerbils died between day 1 and 3, and 2 additional animals died 5-8 hours following a water maze trial by day 14. Thus, the overall death rate of the control group was 60%. In contrast, in the ADAC-treated group only 2 animals out of 10 died (20%) during the entire monitoring period, one on day 3 and one on day 6.
(§1) Prior to subjecting the gerbils to 10 minutes of ischemia, the gerbils were randomly divided into the control and the drug testing groups. […] During post-ischemic recovery, animals were monitored each day for signs of functional damage (e.g., pareses) that might affect their subsequent water maze performance. Postischemic mortality was also monitored every day.

[2] = Cardiovascular effects and body temperature of ADAC in nonischemic (normoxic) gerbils; conditions: for Blood pressure / Cardiac rate: 100 μg/kg ADAC, ± SEM
Text: Blood pressure was monitored using a Harvard Apparatus (South Natick, Mass.) rat tail blood pressure monitor (von Lubitz et al., 1994 supra), while a Silogic EC-60 cardiac and respiratory monitor (Stewartstown, Pa.) was used to measure cardiac rate. EEG clip electrodes were attached to the unshaven loose skin of the armpits and to both thighs saturated with EEG gel.

[3] = tested on: gerbils exposed to 10 minutes of ischemia; assay: Survival rate following 10 minutes of ischemia, postischemic ADAC
Protocol: In the three remaining treatment groups (i.e., 3, 6, and 12 hours) numerical improvement was apparent, but statistical significance of (P<0.05) was lost probably owing to the sample sizes. […] To prevent selection of overly robust animals into these groups, the data were not normalized to account for pre-treatment mortalities.

[4] = tested on: gerbils subjected to 10 minutes of ischemia; assay: Open field locomotor activity 7 days after ischemia; conditions: preischemic ADAC, 10 minute period, control 235±3 cm, P<0.001
Protocol: as §1
Since locomotor hyperactivation may result in a spurious improvement of performance in the water maze (von Lubitz et al., 1993, supra), open field activity of all gerbils was assessed 7 days after the occlusion (i.e., one day prior to the water maze experiments). During locomotor testing, horizontal displacement of each gerbil was monitored in 2 minute epochs for 10 minutes using a Digiscan activity monitor (available from Omnitech Electronics, Colombus, Ohio).

[5] = Open field locomotor activity in nonischemic gerbils; conditions: 0.1 mg/kg (100 μg/kg)
[6] = tested on: neurons of hippocampal CA1 region; assay: Neuronal survival 14 days after 10 minute ischemia, postischemic ADAC; conditions: control 25±3%
Protocol: At the end of the survival monitoring period (14 days), control and drug treated survivors were heavily anesthetized with Nembutal (60 mg/kg, intraperitoneally), and perfused with phosphate buffered (pH 7.4) 3.5% formaldehyde as described previously (Lin et al., Neurosci., 2, 289 (1990). The sections were stained with the method of Nissl, and the extent of the neuronal loss in the hippocampal region was investigated according to a standard procedure as disclosed in the art (von Lubitz et al., (1992) supra; 1994)supra.

[7] = tested on: gerbils exposed to 10 minutes of brain ischemia; assay: Dose-response of preischemic ADAC on survival after 10 minutes of ischemia; conditions: 15 min preischemia, control 40%
Text: This higher selectivity results in lower quantities of drug administration required for maximum neuroprotection. Lower administered quantities in turn, result in attenuation or elimination of side-effects.

[8] = 0.1 mg/kg ADAC 15 min post ischemia
[9] = 0.1 mg/kg ADAC 30 min post ischemia
[10] = 0.1 mg/kg ADAC 2 hour post ischemia
[11] = 0.1 mg/kg ADAC 3 hour post ischemia
[12] = 0.1 mg/kg ADAC 6 hour post ischemia
[13] = 0.1 mg/kg ADAC 12 hour post ischemia

For `NCCNC(=O)Cc1ccc(NC(=O)Cc2ccc(Nc3ncnc4c3ncn4[C@@H]3O[C@H](CO)[C@@H](O)[C@H]3O)cc2)cc1` [ADAC], the death rate [1] was 20%, the Blood pressure ([2]; 5 min post injection) was 83 ± 1 mm Hg and the Cardiac rate ([2]; 5 min post injection) was 385 ± 6 beats/min. For the same compound, the Blood pressure ([2]; 15 min post injection) was 81 ± 1 mm Hg, the Cardiac rate ([2]; 15 min post injection) was 382 ± 7 beats/min and the Blood pressure ([2]; 30 min post injection) was 82 ± 2 mm Hg. The Cardiac rate ([2]; 30 min post injection) was 383 ± 8 beats/min, the Blood pressure ([2]; 60 min post injection) was 80 ± 2 mm Hg and the Cardiac rate ([2]; 60 min post injection) was 383 ± 6 beats/min. The “changes of body temperature” value ([2]; 100 μg/kg, nonischemic gerbils) was “did not cause any significant changes”, the “changes of cardiac rate” value ([2]; 100 μg/kg, nonischemic gerbils) was “did not cause any significant changes” and the “changes of mean arterial blood pressure” value ([2]; 100 μg/kg, nonischemic gerbils) was “did not cause any significant changes”. The “bradycardia, hypotension, or decreased cerebral (cortical) blood flow” value ([2]; 0.1 mg/kg intraperitoneal, normoxic gerbils, within 120 minutes) was “not accompanied by a statistically significant bradycardia, hypotension, or decreased cerebral (cortical) blood flow”, the “cardiovascular effects at higher concentrations” value ([2]; 0.3 mg/kg and beyond, within 30 minutes of administration) was “manifests cardiovascular effects within 30 minutes of administration of 0.3 mg/kg and beyond” and the “Survival Rate 24 h postischemia” value [3, 8] was 100%. For the same compound, the “Survival Rate 14 days postischemia” value [3, 8] was 70%, the “Survival Rate 24 h postischemia” value [3, 9] was 100% and the “Survival Rate 14 days postischemia” value [3, 9] was 90%. For the same compound, the “Survival Rate 24 h postischemia” value ([3]; 0.1 mg/kg ADAC 1 hour post ischemia) was 80%, the “Survival Rate 24 h postischemia” value [3, 10] was 80% and the “Survival Rate 14 days postischemia” value [3, 10] was 80%. The “Survival Rate 24 h postischemia” value [3, 11] was 60%, the “Survival Rate 14 days postischemia” value [3, 11] was 50% and the “Survival Rate 24 h postischemia” value [3, 12] was 50%. For the same compound, the “Survival Rate 14 days postischemia” value [3, 12] was 50%, the “Survival Rate 24 h postischemia” value [3, 13] was 60% and the “Survival Rate 14 days postischemia” value [3, 13] was 50%. The “open field activity (horizontal displacement)” value [4] was 135±6 cm, the “behavioral changes by open field locomotor activity testing” value [5] was “does not induce behavioral changes; also recorded: did not induce any behavioral changes” and the CA1 neuronal preservation ([6]; ADAC at 0.5, 2 or 3 hours postischemia) was ~ 75%. The CA1 neurons surviving ([6]; ADAC at 15 minutes, 6 or 12 hours postischemia) was “approximately 60%”, the “CA1 neurons still intact” value ([6]; ADAC at 1 hour postischemia) was 88±4% and the survival rate ([7]; 0.025 mg/kg) was 30%. The survival rate ([7]; 0.050 mg/kg) was 60% and the “survival rate (plateau)” value ([7]; 75, 100, or 200 mg/kg (so in the source)) was 80%.
